Values of other authors as cited in US20210319872A1, “DRUG AND DEVICE COMBINATION PRODUCTS WITH IMPROVED SAFETY AND EFFICACY PROFILES” (priority 2016, published 2021).

Key:
[1] = older adults
subjects = settings: 16 subjects after 15-mg dose, pilot and main studies, FIG. 31 B
[2] = in vivo
[3] = patients who had been started on the drug

[Li] [lithium]
clearance rate [1]: reduced

COc1ccc2c3c1O[C@H]1C(=O)CC[C@@]4(O)[C@@H](C2)N(C)CC[C@]314 [oxycodone, reference compound]
individual time course of pupil diameter (subjects): does not move into “pinpoint pupils”, overdose, or mydriasis
Abdominal pain [2]: Gastrointestinal: Abdominal pain (up to 5%), Constipation (Adults,
Chest pain [2]: Cardiovascular: Cardiac arrest, Chest pain (less than 1%), Heart
Fever [2]: Other: Fever (Adults, up to 5%; pediatrics, 11%)
Headache [2]: (Adults, 3% or greater; pediatrics, 14%), Somnolence (controlled-
Heart failure [2]: failure (less than 3%), Hypotension (less than 3%), Shock, ST
Hypersensitivity reaction [2]: Immunologic: Hypersensitivity reaction (less than 3%)
Hypotension [2]: failure (less than 3%), Hypotension (less than 3%), Shock, ST
Opioid withdrawal [2]: Opioid withdrawal (1% to 5%)
ST segment depression [2]: segment depression (less than 1%), Syncope (less than 1%)
Serious side effect, Gastrointestinal [2]: Gastrointestinal: Bowel obstruction, Diverticulitis, Exacerbation
Serious side effect, Other [2]: Other: Drug withdrawal syndrome in neonate of dependent mother,
Serious side effect, Respiratory [2]: Respiratory: Respiratory depression
Somnolence [2]: release, 23%; immediate-release, 3% or greater)
Sweating [2]: (controlled-release, 5%; immediate-release, less than 3%)
Syncope [2]: segment depression (less than 1%), Syncope (less than 1%)

COc1ccc2c3c1O[C@H]1C(=O)CC[C@H]4[C@@H](C2)N(C)CC[C@]314 [Hydrocodone, reference compound]
Abdominal pain [2]: Gastrointestinal: Abdominal pain (1% to less than 5%),
Constipation [2]: Constipation (3% to 11%), Nausea (7% to 10%), Vomiting (3% to
Difficulty swallowing [2]: Gastrointestinal: Difficulty swallowing (less than 1%)
Dizziness [2]: Neurologic: Dizziness (2% to 3%), Headache (2% to 4%),
Fatigue [2]: Other: Fatigue (1% to 4%)
Headache [2]: Neurologic: Dizziness (2% to 3%), Headache (2% to 4%),
Hypotension [2]: Cardiovascular: Hypotension (less than 1%), Orthostatic
Opioid withdrawal [2]: Opioid withdrawal (less than 1%)
Orthostatic hypotension [2]: hypotension (less than 1%), Prolonged QT interval, Syncope
Peripheral edema [2]: Cardiovascular: Peripheral edema (1% to less than 5%%)
Pruritus [2]: Dermatologic: Pruritus (0% to less than 5%)
Serious side effect, Cardiovascular [2]: hypotension (less than 1%), Prolonged QT interval, Syncope
Serious side effect, Neurologic [2]: Neurologic: Raised intracranial pressure, Seizure
Serious side effect, Other [2]: Other: Drug withdrawal syndrome in neonate of dependent mother,
Serious side effect, Respiratory [2]: Respiratory: Respiratory depression
Somnolence [2]: Somnolence (1% to 5%), Tremor (3%)
Spasm [2]: Musculoskeletal: Spasm (1% to less than 5%)
Tremor [2]: Somnolence (1% to 5%), Tremor (3%)
Upper respiratory infection [2]: Respiratory: Upper respiratory infection (1% to 3%)
Urinary tract infectious disease [2]: Renal: Urinary tract infectious disease (1% to 5%)
Xerostomia [2]: 6%), Xerostomia (1% to less than 5%)

Nc1ccncc1 [Ampyra]
Abdominal pain [2]: Gastrointestinal: Abdominal pain (7%), Nausea (7% to 13%),
Abnormal gait [2]: Musculoskeletal: Abnormal gait (5%), Backache (5%)
Anxiety [2]: Psychiatric: Anxiety (5%)
Asthenia [2]: Neurologic: Asthenia (7%), Dizziness (7%), Headache (7%),
Backache [2]: Musculoskeletal: Abnormal gait (5%), Backache (5%)
Dizziness [2]: Neurologic: Asthenia (7%), Dizziness (7%), Headache (7%),
Headache [2]: Neurologic: Asthenia (7%), Dizziness (7%), Headache (7%),
Insomnia [2]: Insomnia (9%)
Nausea [2]: Gastrointestinal: Abdominal pain (7%), Nausea (7% to 13%),
Serious side effect, Immunologic [2]: Immunologic: Anaphylaxis, Hypersensitivity reaction
Serious side effect, Neurologic [2]: Neurologic: Seizure
Urinary tract infectious disease [2]: Renal: Urinary tract infectious disease (12%)
Vomiting [2]: Vomiting (13%)

O=C(O)C(O)C(O)C(=O)O.c1cnc2cc3c(cc2n1)[C@@H]1CNC[C@H]3C1 [Chantix]
Acquired night blindness [2]: Ophthalmic: Acquired night blindness (rare), Blurred vision
Angina [2]: Cardiovascular: Angina (2.3%), Myocardial infarction (2%)
Constipation [2]: Gastrointestinal: Constipation (5% to 8%), Flatulence (6% to 9%),
Depression [2]: Psychiatric: Abnormal behavior, Depression (3.5% to 11%),
Dream disorder [2]: Neurologic: Dream disorder (9% to 13%), Headache (11% to 19%),
Flatulence [2]: Gastrointestinal: Constipation (5% to 8%), Flatulence (6% to 9%),
Headache [2]: Neurologic: Dream disorder (9% to 13%), Headache (11% to 19%),
Hostile behavior [2]: Hostile behavior (2%), Mood disorder (2.3%), Suicidal behavior,
Insomnia [2]: Insomnia (10% to 19%)
Mood disorder [2]: Hostile behavior (2%), Mood disorder (2.3%), Suicidal behavior,
Myocardial infarction [2]: Cardiovascular: Angina (2.3%), Myocardial infarction (2%)
Nausea [2]: Nausea (30%), Vomiting (5% to 11%)
Retinal vascular disorder [2]: (infrequent), Retinal vascular disorder (rare), Subcapsular cataract
Serious side effect, Neurologic [2]: Neurologic: Cerebrovascular accident
Serious side effect, Psychiatric [2]: Psychiatric: Abnormal behavior, Depression (3.5% to 11%),
Subcapsular cataract [2]: (rare), Transient blindness (rare), Visual disturbance (infrequent)
Suicidal behavior, and/or ideation [2]: and/or ideation (6% to 11%)
Transient blindness [2]: (rare), Transient blindness (rare), Visual disturbance (infrequent)
Visual disturbance [2]: (rare), Transient blindness (rare), Visual disturbance (infrequent)
Vomiting [2]: Nausea (30%), Vomiting (5% to 11%)

CC[C@H]1OC(=O)[C@H](C)[C@@H](O[C@H]2C[C@@](C)(OC)[C@@H](O)[C@H](C)O2)[C@H](C)[C@@H](O[C@@H]2O[C@H](C)C[C@H](N(C)C)[C@H]2O)[C@](C)(OC)C[C@@H](C)C(=O)[C@H](C)[C@@H](O)[C@]1(C)O [clarithromycin]
Digoxin toxicity, times more likely [3]: 12 times

Cc1nnc2n1-c1ccc(Cl)cc1C(c1ccccc1)=NC2 [Xanax (alprazolam)]
Cognitive disorder [2]: Neurologic: Cognitive disorder (28.8%), Confusion (1.5% to
Confusion [2]: Neurologic: Cognitive disorder (28.8%), Confusion (1.5% to
Constipation [2]: Gastrointestinal: Constipation (8.1% to 26.2%), Reduced salivation
Decrease in appetite [2]: Endocrine metabolic: Decrease in appetite (7.3% to 27.8%),
Fatigue [2]: Other: Fatigue (13.9% to 48.6%)
Increased appetite [2]: Increased appetite (7% to 32.7%), Weight increase (2.7% to 27.2%)
Memory impairment [2]: 40.1%), Lightheadedness (20.8%), Memory impairment (15.4% to
Reduced libido [2]: Reproductive: Reduced libido (6% to 14.4%)
Reduced salivation [2]: (32.8%), Xerostomia (10.2% to 14.7%)
Sedated [2]: 33.1%), Sedated (45.2%), Somnolence (23% to 76.8%)
Serious side effect, Dermatologic [2]: Dermatologic: Stevens-Johnson syndrome
Somnolence [2]: 33.1%), Sedated (45.2%), Somnolence (23% to 76.8%)
Weight increase [2]: Increased appetite (7% to 32.7%), Weight increase (2.7% to 27.2%)
Xerostomia [2]: (32.8%), Xerostomia (10.2% to 14.7%)

COc1ccc2c3c1O[C@H]1C(=O)CC[C@H]4[C@@H](C2)N(C)CC[C@]314.O=C(O)C(O)C(O)C(=O)O [Hysingla ER]
Abdominal pain [2]: Gastrointestinal: Abdominal pain (1% to less than 5%),
Constipation [2]: Constipation (3% to 11%), Nausea (7% to 10%), Vomiting (3% to
Difficulty swallowing [2]: Gastrointestinal: Difficulty swallowing (less than 1%)
Dizziness [2]: Neurologic: Dizziness (2% to 3%), Headache (2% to 4%),
Fatigue [2]: Other: Fatigue (1% to 4%)
Headache [2]: Neurologic: Dizziness (2% to 3%), Headache (2% to 4%),
Hypotension [2]: Cardiovascular: Hypotension (less than 1%), Orthostatic
Opioid withdrawal [2]: Opioid withdrawal (less than 1%)
Orthostatic hypotension [2]: hypotension (less than 1%), Prolonged QT interval, Syncope
Peripheral edema [2]: Cardiovascular: Peripheral edema (1% to less than 5%%)
Pruritus [2]: Dermatologic: Pruritus (0% to less than 5%)
Serious side effect, Cardiovascular [2]: hypotension (less than 1%), Prolonged QT interval, Syncope
Serious side effect, Neurologic [2]: Neurologic: Raised intracranial pressure, Seizure
Serious side effect, Other [2]: Other: Drug withdrawal syndrome in neonate of dependent mother,
Serious side effect, Respiratory [2]: Respiratory: Respiratory depression
Somnolence [2]: Somnolence (1% to 5%), Tremor (3%)
Spasm [2]: Musculoskeletal: Spasm (1% to less than 5%)
Tremor [2]: Somnolence (1% to 5%), Tremor (3%)
Upper respiratory infection [2]: Respiratory: Upper respiratory infection (1% to 3%)
Urinary tract infectious disease [2]: Renal: Urinary tract infectious disease (1% to 5%)
Xerostomia [2]: 6%), Xerostomia (1% to less than 5%)

CCCCc1ncc(/C=C(\Cc2cccs2)C(=O)O)n1Cc1ccc(C(=O)O)cc1 [Eprosartan (Teveten)]
Dizziness [2]: Neurologic: Dizziness (3.8%)
Fatigue [2]: Other: Fatigue (1.4%)
Myalgia [2]: Musculoskeletal: Myalgia (1.9%)
Neutropenia [2]: Hematologic: Neutropenia (1.3%)
Serious side effects, listed without incidence or only as rare [2]: Dermatologic: Edema of face (rare)

CC(C)(C)NCC(O)COc1cccc2c1CCC(=O)N2 (centres unmarked) [Carteolol (Cartrol)]
Asthenia [2]: Neurologic: Asthenia (7%.), Dizziness (4% to 15%.), Headache
Burning sensation in eye [2]: Ophthalmic: Blurred vision, Burning sensation in eye (25%),
Conjunctival edema [2]: Conjunctival edema (25%), Conjunctival hyperemia (25%),
Conjunctival hyperemia [2]: Conjunctival edema (25%), Conjunctival hyperemia (25%),
Dizziness [2]: Neurologic: Asthenia (7%.), Dizziness (4% to 15%.), Headache
Epiphora [2]: Epiphora (25%), Eye irritation (25%)
Eye irritation [2]: Epiphora (25%), Eye irritation (25%)
Headache [2]: (4% to 17%.), Insomnia (2% to 12%.)
Insomnia [2]: (4% to 17%.), Insomnia (2% to 12%.)

CC(C)NCC(O)COc1ccc(CC(N)=O)cc1 (centres unmarked) [Atenolol (Tenormin)]
Bradyarrhythmia [2]: Cardiovascular: Bradyarrhythmia (3% to 18%), Cold extremities
Cold extremities [2]: (12%), Hypotension (4% to 25%)
Depression [2]: Psychiatric: Depression (up to 12%)
Dizziness [2]: Neurologic: Dizziness (13%)
Fatigue [2]: Other: Fatigue (up to 26%)
Hypotension [2]: (12%), Hypotension (4% to 25%)
Pulmonary embolism [2]: Respiratory: Pulmonary embolism (1.2%)
